Assay results as given in ChEMBL document CHEMBL1157344, “Botcinins E and F and Botcinolide from Botrytis cinerea and structural revision of botcinolides” (2006).
In brackets after ≈: the same amount, converted by molar mass.

test system: Pyricularia grisea; experiment: Antifungal activity against Magnaporthe grisea; format: functional

Compound | MIC [µM]
CCCCCC[C@H](O)/C=C/C(=O)O[C@@H]1[C@@H](C)[C@@H]2OC(=O)[C@H](C)[C@H](OC(C)=O)[C@@]2(C)O[C@H]1C [BOTCININ B] | 12.5 (≈ 5.68 µg/mL)
CCCC[C@H](O)/C=C/C(=O)O[C@@H]1[C@@H](C)[C@H](O)[C@@](C)([C@@H](O)[C@@H](C)C(=O)O)O[C@H]1C [BOTCINIC ACID] | 100 (≈ 40.2 µg/mL)
CCCC[C@H](O)/C=C/C(=O)O[C@@H]1[C@@H](C)[C@@H]2OC(=O)[C@H](C)[C@H](O)[C@@]2(C)O[C@H]1C [3-O-DEACETYLBOTCININ A] | 100 (≈ 38.4 µg/mL)
CCCC[C@H](O)/C=C/C(=O)O[C@@H]1[C@@H](C)[C@@H]2OC(=O)C(C)=C[C@@]2(C)O[C@H]1C [BOTCININ D] | 12.5 (≈ 4.58 µg/mL)
CCCC[C@H](O)/C=C/C(=O)O[C@@H]1[C@@H](C)[C@@H]2OC(=O)[C@@H](C)[C@H](O)[C@@]2(C)O[C@H]1C [BOTCININ F] | 100 (≈ 38.4 µg/mL)
